The assay deals with PI3K delta (Homo sapiens, UniProt O00329). The assay is described as follows: PI3K delta inhibition in Rat1-myr-HA-p110 delta cells (Akt Ser473 phosphorylation, AlphaScreen SureFire). The assay is classed as cell-based. Further details: myristylation signal (myr) (N); HA tag (N); expressed in transfected cells; host or cells: Rat1 cells, stably transfected. To be noted: read-out: Cell PI3Kδ/ IC50. The protocol:
Untreated cells were used as low controls, cells stimulated in absence of compounds were used as high controls. […] Cell lysates were either used immediately of stored frozen (in sealed plates) at −20° C. until use. […] Addition of AlphaScreen® SureFire® reagents was done according to the manufacturer's protocol. First, 5 ul of reaction buffer plus activation buffer mix containing AlphaScreen® acceptor beads was added, the plate was sealed, and incubated on a plate shaker for 2 hours at room temperature. […] The difference between high and low controls was taken as 100% and compound effects were expressed as percent inhibition. IC50 values were determined from the dose response curves by graphical extrapolation.

PI3K delta, sequence (O00329 whole entry): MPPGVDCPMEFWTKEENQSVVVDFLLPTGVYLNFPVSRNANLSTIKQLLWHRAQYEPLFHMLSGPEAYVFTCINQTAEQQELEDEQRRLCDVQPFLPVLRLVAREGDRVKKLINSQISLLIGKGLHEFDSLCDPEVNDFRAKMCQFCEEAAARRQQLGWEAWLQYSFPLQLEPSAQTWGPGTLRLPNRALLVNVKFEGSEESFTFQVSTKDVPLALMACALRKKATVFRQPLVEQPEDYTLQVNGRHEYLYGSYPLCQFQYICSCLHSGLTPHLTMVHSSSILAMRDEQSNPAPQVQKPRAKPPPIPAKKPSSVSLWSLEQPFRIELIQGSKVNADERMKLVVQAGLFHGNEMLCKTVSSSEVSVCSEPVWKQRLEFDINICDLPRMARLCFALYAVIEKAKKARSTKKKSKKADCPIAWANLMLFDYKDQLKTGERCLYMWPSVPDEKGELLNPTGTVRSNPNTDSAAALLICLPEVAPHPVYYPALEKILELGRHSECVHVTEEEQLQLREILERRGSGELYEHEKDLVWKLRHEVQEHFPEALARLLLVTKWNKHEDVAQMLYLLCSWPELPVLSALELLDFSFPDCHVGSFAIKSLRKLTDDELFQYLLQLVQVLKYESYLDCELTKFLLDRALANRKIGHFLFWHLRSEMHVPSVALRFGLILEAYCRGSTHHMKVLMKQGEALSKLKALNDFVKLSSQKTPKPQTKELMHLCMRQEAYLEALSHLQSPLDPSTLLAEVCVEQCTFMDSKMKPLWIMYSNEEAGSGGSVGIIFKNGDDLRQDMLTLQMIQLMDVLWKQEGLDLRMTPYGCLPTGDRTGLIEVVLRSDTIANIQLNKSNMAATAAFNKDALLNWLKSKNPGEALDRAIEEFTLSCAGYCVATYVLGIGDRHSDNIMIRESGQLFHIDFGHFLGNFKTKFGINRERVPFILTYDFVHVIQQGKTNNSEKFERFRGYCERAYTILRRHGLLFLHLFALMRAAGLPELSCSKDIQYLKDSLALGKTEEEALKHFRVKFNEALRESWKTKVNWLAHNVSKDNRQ
PI3K delta, sequence (Q63787 whole entry partner): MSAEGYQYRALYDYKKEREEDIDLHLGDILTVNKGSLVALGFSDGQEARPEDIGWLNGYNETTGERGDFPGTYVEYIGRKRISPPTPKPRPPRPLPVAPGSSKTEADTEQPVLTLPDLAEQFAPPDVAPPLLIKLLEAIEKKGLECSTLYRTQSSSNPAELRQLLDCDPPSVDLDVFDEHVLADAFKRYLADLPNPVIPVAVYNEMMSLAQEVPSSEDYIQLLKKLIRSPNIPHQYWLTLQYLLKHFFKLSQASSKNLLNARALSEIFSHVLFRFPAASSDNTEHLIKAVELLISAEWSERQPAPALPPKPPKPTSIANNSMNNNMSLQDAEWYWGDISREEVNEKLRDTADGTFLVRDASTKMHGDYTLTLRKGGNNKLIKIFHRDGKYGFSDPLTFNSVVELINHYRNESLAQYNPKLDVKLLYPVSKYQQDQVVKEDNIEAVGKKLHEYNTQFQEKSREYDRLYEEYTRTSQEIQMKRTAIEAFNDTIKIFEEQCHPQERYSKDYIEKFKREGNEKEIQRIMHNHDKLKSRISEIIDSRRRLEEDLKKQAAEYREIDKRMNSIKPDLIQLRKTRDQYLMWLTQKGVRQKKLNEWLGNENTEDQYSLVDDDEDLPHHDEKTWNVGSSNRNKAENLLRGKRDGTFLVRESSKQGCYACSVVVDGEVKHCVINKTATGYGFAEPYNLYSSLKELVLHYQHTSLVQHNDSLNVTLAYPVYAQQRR

For the compound `COc1ncc(N2CCc3ncnc(O[C@H]4CCN(C(=O)c5cn(C)cn5)C4)c3C2)cc1C` [Example 20, {(S)-3-[6-(6-Methoxy-5-methyl-pyridin-3-yl)-5,6,7,8-tetrahydro-pyrido[4,3-d]pyrimidin-4-yloxy]-pyrrolidin-1-yl}-(1-methyl-1H-imidazol-4-yl)-methanone], the IC50 was 254 nM.
